# Measurements as given in patent US11091501B2, “Heterocyclic compounds as RSV inhibitors” (Enanta Pharmaceuticals, Inc., priority 2017, dated 2021).
# Tested on: Human RSV-A (“Long” strain)
# Assay: RSV in vitro cytoprotection assay (CPE, ATPlite) in HEp-2 cells
# Assay type: cell-based
# Settings: human respiratory syncytial virus, 96 h; HEp-2 cells, 4-day incubation, ATPlite readout; read-out: Human RSV-A (“Long” strain) EC50
# In short: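 HEp-2 cells (8,000/well) given 2-fold serial compound dilutions in duplicate, then infected with sucrose-stabilised RSV-A Long stock. After 4 days, cell viability read by ATPlite luminescence, with a parallel uninfected plate for cytotoxicity. EC50 binned A<0.01 μM, B 0.01-0.05 μM, C>0.05 μM.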
row,EC50,Structure (SMILES)
1,10 to 50 nM,O=C(Nc1ccc(C(=O)N2CCc3sc(-c4nc5ccccc5[nH]4)cc3-c3ccccc32)cc1)c1cc2c(nc1N1CC3(CCOCC3)C1)CCC2 [Example 264]
2,< 10 nM,Cc1ccc(C(=O)Nc2ccc(C(=O)N3CCc4sc(-c5nc6ccccc6[nH]5)cc4-c4ccccc43)cc2)c(N2CC3(CCOCC3)C2)n1 [Example 266]
3,> 50 nM,Cc1ccc(C(=O)Nc2ccc(C(=O)N3CCc4cc(NC(=O)OC5CCCCC5)sc4-c4ccccc43)cc2)c(N2CC3(CCOCC3)C2)n1 [Example 300]
4,10 to 50 nM,Cc1cnc(N2CC3(CCOCC3)C2)c(C(=O)Nc2ccc(C(=O)N3CCc4cc(NC(=O)OC5CCCC5)sc4-c4ccccc43)cc2)c1 [Example 293]
5,< 10 nM,Cc1cnc(N2CC3(CCOCC3)C2)c(C(=O)Nc2ccc(C(=O)N3CCc4cc(-c5ccncc5)sc4-c4ccc(F)cc43)cc2)c1 [Example 166]
6,< 10 nM,Cc1cnc(N2CC3(CCOCC3)C2)c(C(=O)Nc2ccc(C(=O)N3CCc4c(sc(-c5nc6ccccc6[nH]5)c4Cl)-c4ccccc43)cc2)c1 [Example 272]
7,< 10 nM,Cc1cnc(N2CC3(CCOCC3)C2)c(C(=O)Nc2ccc(C(=O)N3CCc4cc(C(=O)Nc5c(F)cccc5Cl)oc4-c4ccc(F)cc43)cc2)c1 [Example 237]
8,< 10 nM,Cc1cnc(N2CC3(CCOCC3)C2)c(C(=O)Nc2ccc(C(=O)N3CCc4c(sc(C(=O)Nc5nc(C)ccc5F)c4F)-c4ccccc43)cc2)c1 [Example 219]
9,10 to 50 nM,Cc1cnc(N2CC3(CCOCC3)C2)c(C(=O)Nc2ccc(C(=O)N3CCc4c(sc(C(=O)Nc5cccc(C)n5)c4F)-c4ccccc43)cc2)c1 [Example 229]
10,< 10 nM,O=C(Nc1ccccc1F)c1cc2c(o1)-c1ccccc1N(C(=O)c1ccc(NC(=O)c3cc4c(nc3N3CC5(CCOCC5)C3)CCC4)cc1)CC2 [Example 255]
11,< 10 nM,Cc1cnc(N2CC3(CCOCC3)C2)c(C(=O)Nc2ccc(C(=O)N3CCc4cc(-c5ccc6[nH]ncc6c5)sc4-c4ccc(F)cc43)cc2)c1 [Example 178]
12,< 10 nM,Cc1cnc(N2CC3(CCOCC3)C2)c(C(=O)Nc2ccc(C(=O)N3CCc4cc(-c5cc[nH]c(=O)c5)sc4-c4ccc(F)cc43)cc2)c1 [Example 183]
13,10 to 50 nM,Cc1cnc(N2CC3(CCOCC3)C2)c(C(=O)Nc2ccc(C(=O)N3CCc4cc(-c5nc(C)cs5)sc4-c4ccc(F)cc43)cc2)c1 [Example 152]
14,< 10 nM,Cc1cnc(N2CC3(CCOCC3)C2)c(C(=O)Nc2ccc(C(=O)N3CCc4c(sc(C(=O)Nc5ccccc5F)c4F)-c4ccccc43)cc2)c1 [Example 205]
15,< 10 nM,Cc1cnc(N2CC3(CCOCC3)C2)c(C(=O)Nc2ccc(C(=O)N3CCc4cc(-c5n[nH]c6ccccc56)sc4-c4ccc(F)cc43)cc2)c1 [Example 181]
16,10 to 50 nM,Cc1cnc(N2CC3(CCOCC3)C2)c(C(=O)Nc2ccc(C(=O)N3CCc4cc(NC(=O)c5c(C)cccc5C)sc4-c4ccccc43)cc2)c1 [Example 286]
17,10 to 50 nM,O=C(Nc1ccc(C(=O)N2CCc3cc(-c4nc5ccccc5[nH]4)oc3-c3ccc(F)cc32)cc1)c1cc2c(nc1N1CC3(CCOCC3)C1)CCCC2 [Example 245]
18,10 to 50 nM,Cc1cnc(N2CC3(CCOCC3)C2)c(C(=O)Nc2ccc(C(=O)N3CCc4cc(NC(=O)c5c(C)cccc5F)sc4-c4ccccc43)cc2)c1 [Example 281]
19,< 10 nM,Cc1cnc(N2CC3(CCOCC3)C2)c(C(=O)Nc2ccc(C(=O)N3CCc4cc(-c5ncns5)sc4-c4ccc(F)cc43)cc2)c1 [Example 155]
20,< 10 nM,O=C(Nc1c(F)cccc1F)c1cc2c(o1)-c1ccccc1N(C(=O)c1ccc(NC(=O)c3cc4c(nc3N3CC5(CCOCC5)C3)CCC4)cc1)CC2 [Example 247]
21,< 10 nM,Cc1cnc(N2CC3(CCOCC3)C2)c(C(=O)Nc2ccc(C(=O)N3CCc4cc(-c5cnc6[nH]ncc6c5)sc4-c4ccc(F)cc43)cc2)c1 [Example 179]
22,10 to 50 nM,Cc1cnc(N2CC3(CCOCC3)C2)c(C(=O)Nc2ccc(C(=O)N3CCc4cc(-c5nc(C)c(C)s5)sc4-c4ccc(F)cc43)cc2)c1 [Example 153]
23,< 10 nM,Cc1cnc(N2CC3(CCOCC3)C2)c(C(=O)Nc2ccc(C(=O)N3CCc4cc(-c5cn(C)nc5N)sc4-c4ccc(F)cc43)cc2)c1 [Example 172]
24,10 to 50 nM,Cc1cnc(N2CC3(CCOCC3)C2)c(C(=O)Nc2ccc(C(=O)N3CCc4sc(-c5nc6ccccc6[nH]5)cc4-c4ccccc43)cc2)c1 [Example 262]

# Continued, compound first:
row,Structure (SMILES),EC50
1,O=C(Nc1c(F)cc(F)cc1Cl)c1cc2c(s1)-c1ccc(F)cc1N(C(=O)c1ccc(NC(=O)c3ccc(-c4cccs4)nc3N3CC4(CCOCC4)C3)cc1)CC2 [Example 27],10 to 50 nM
2,Cc1cnc(N2CC3(CCOCC3)C2)c(C(=O)Nc2ccc(C(=O)N3CCc4cc(C(=O)Nc5ncccc5Cl)sc4-c4ccc(F)cc43)cc2)c1 [Example 120],< 10 nM
3,Cc1cnc(N2CC3(CCOCC3)C2)c(C(=O)Nc2ccc(C(=O)N3CCc4cc(C(=O)Nc5nc(C)co5)sc4-c4ccc(F)cc43)cc2)c1 [Example 135],< 10 nM
4,CC1(CNc2ncccc2C(=O)Nc2ccc(C(=O)N3CCc4cc(C(=O)Nc5c(F)cccc5F)sc4-c4ccc(F)cc43)cc2)CCCO1 (stereo not shown) [Example 58],> 50 nM
5,O=C(Nc1c(F)cccc1F)c1cc2c(s1)-c1c(cc(F)c(F)c1F)N(C(=O)c1ccc(NC(=O)c3cccnc3N3CC4(CCOCC4)C3)cc1)CC2 [Example 78],< 10 nM
6,O=C(Nc1c(F)cccc1F)c1nc2c(s1)-c1ccccc1N(C(=O)c1ccc(NC(=O)c3cccnc3N3CC4(CCOCC4)C3)cc1)CC2 [Example 104],< 10 nM
7,O=C(Nc1c(F)cccc1Cl)c1cc2c(s1)-c1ccc(F)cc1N(C(=O)c1ccc(NC(=O)c3cccnc3N3CC4(CCOCC4)C3)cc1)CC2 [Example 20],< 10 nM
8,O=C(Nc1c(F)cccc1F)c1cc2c(s1)-c1ccc(F)cc1N(C(=O)c1ccc(NC(=O)c3cccnc3N3CC4CCCC4C3)cc1)CC2 (stereo not shown) [Example 47],10 to 50 nM
9,O=C(Nc1c(F)cccc1F)c1cc2c(s1)-c1ccc(F)cc1N(C(=O)c1ccc(NC(=O)c3cc4c(nc3N3CC5(CCOCC5)C3)CCC4)cc1)CC2 [Example 65],< 10 nM
10,Cc1cnc(N2CC3(CCOCC3)C2)c(C(=O)Nc2ccc(C(=O)N3CCc4cc(C(=O)Nc5ncc(C)o5)sc4-c4ccc(F)cc43)cc2)c1 [Example 134],< 10 nM
11,O=C(Nc1ccc(C(=O)N2CCc3nc(-c4nc5ccccc5[nH]4)oc3-c3ccccc32)cc1)c1cccnc1N1CC2(CCOCC2)C1 [Example 109],10 to 50 nM
12,O=C(Nc1ccc(C(=O)N2CCc3nc(-c4nc5ccccc5[nH]4)sc3-c3ccccc32)cc1)c1cccnc1N1CC2(CCOCC2)C1 [Example 107],10 to 50 nM
13,O=C(Nc1c(F)cc(F)cc1Cl)c1cc2c(s1)-c1ccc(F)cc1N(C(=O)c1ccc(NC(=O)c3cc(C(F)(F)F)cnc3N3CC4(CCOCC4)C3)cc1)CC2 [Example 29],10 to 50 nM
14,O=C(Nc1ccc(C(=O)N2CCc3c(sc(-c4nc5ccccc5[nH]4)c3F)-c3ccccc32)cc1)c1cccnc1N1CC2(CCOCC2)C1 [Example 92],< 10 nM
15,Cc1cnc(N2CC3(CCOCC3)C2)c(C(=O)Nc2ccc(C(=O)N3CCc4cc(-c5ccn[nH]5)sc4-c4ccc(F)cc43)cc2)c1 [Example 46],10 to 50 nM
16,O=C(Nc1c(F)cccc1F)c1cc2c(s1)-c1cc(F)c(F)cc1N(C(=O)c1ccc(NC(=O)c3cccnc3N3CC4(CCOCC4)C3)cc1)CC2 [Example 76],< 10 nM

row,Structure (SMILES),EC50
1,Cc1cnc(N2CC3(CCOCC3)C2)c(C(=O)Nc2ccc(C(=O)N3CCc4cc(C(=O)Nc5c(C)cccc5F)sc4-c4ccc(F)cc43)cc2)c1 [Example 7],< 10 nM
2,O=C(Nc1c(F)cc(F)cc1Cl)c1cc2c(s1)-c1ccc(F)cc1N(C(=O)c1ccc(NC(=O)c3cc4ccccc4nc3N3CC4(CCOCC4)C3)cc1)CC2 [Example 25],10 to 50 nM
3,O=C(Nc1ccc(C(=O)N2CCc3c(sc(C(=O)Nc4c(F)cc(F)cc4F)c3F)-c3ccccc32)cc1)c1cccnc1N1CC2(CCOCC2)C1 [Example 89],< 10 nM
4,O=C(Nc1c(F)cccc1C(F)(F)F)c1cc2c(s1)-c1cc(F)c(F)cc1N(C(=O)c1ccc(NC(=O)c3cc(F)cnc3N3CC4(CCOCC4)C3)cc1)CC2 [Example 75],10 to 50 nM
5,O=C(Nc1ccc(C(=O)N2CCc3cc(-c4nc5ccc(F)cc5[nH]4)sc3-c3ccc(F)cc32)cc1)c1cc(F)cnc1N1CC2(CCOCC2)C1 [Example 42],10 to 50 nM
6,Cc1cnc(N2CC3(CCOCC3)C2)c(C(=O)Nc2ccc(C(=O)N3CCc4cc(C(=O)NC5CC6CCC5O6)sc4-c4ccc(F)cc43)cc2)c1 (stereo not shown) [Example 123],< 10 nM
7,Cc1ccc(C(=O)Nc2ccc(C(=O)N3CCc4cc(C(=O)Nc5ncccc5F)sc4-c4ccc(F)cc43)cc2)c(N2CC3(CCOCC3)C2)n1 [Example 115],< 10 nM
8,O=C(Nc1c(F)cccc1F)c1cc2c(s1)-c1ccc(F)cc1N(C(=O)c1ccc(NC(=O)c3cccnc3N3CCOc4ccccc4C3)cc1)CC2 [Example 53],> 50 nM
9,Cc1cccc(F)c1NC(=O)c1cc2c(s1)-c1ccc(F)cc1N(C(=O)c1ccc(NC(=O)c3cc(F)cnc3N3CC4(CCOCC4)C3)cc1)CC2 [Example 36],< 10 nM
10,O=C(Nc1c(F)cc(F)cc1Cl)c1cc2c(s1)-c1ccc(F)cc1N(C(=O)c1ccc(NC(=O)c3cc(C(F)(F)F)cnc3N3CCC4(CC3)COC4)cc1)CC2 [Example 30],10 to 50 nM
11,O=C(Nc1c(F)cc(F)cc1F)c1nc2c(s1)-c1ccccc1N(C(=O)c1ccc(NC(=O)c3cccnc3N3CC4(CCOCC4)C3)cc1)CC2 [Example 105],10 to 50 nM
12,Cc1ccc(C(=O)Nc2ccc(C(=O)N3CCc4cc(-c5nc6cccc(Cl)c6[nH]5)sc4-c4ccc(F)cc43)cc2)c(N2CC3(CCOCC3)C2)n1 [Example 148],10 to 50 nM
13,O=C(Nc1c(F)cccc1F)c1cc2c(s1)-c1ccc(F)cc1N(C(=O)c1ccc(NC(=O)c3cccnc3N3CCCOCC3)cc1)CC2 [Example 51],> 50 nM
14,Cc1cnc(N2CC3(CCOCC3)C2)c(C(=O)Nc2ccc(C(=O)N3CCc4cc(C(=O)NC5CCOCC5)sc4-c4ccc(F)cc43)cc2)c1 [Example 130],< 10 nM
15,Cc1cnc(N2CC3(CCOCC3)C2)c(C(=O)Nc2ccc(C(=O)N3CCc4c(sc(-c5nnco5)c4F)-c4ccc(F)cc43)cc2)c1 [Example 143],< 10 nM
